Source: PubChem BioAssay AID328 (DTP/NCI, 2004)
Values joined by “and” are separate entries in the source; they are usually repeats but may differ in a detail not shown here. Equal values may be shown once. Inconclusive results and toxic doses are left out.

Test system: BDF1 mice, P388 leukemia ip, median survival T/C
Assay: NCI In Vivo Anticancer Drug Screen. Data for tumor model P388 Leukemia (intraperitoneal) in B6D2F1 (BDF1) mice
Settings: endpoint: median survival time, higher = longer survival
How it was run: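 Compound-treated tumour-bearing mice were compared with vehicle-treated controls. Survival was recorded, and the value is the treated-group measurement divided by the control-group measurement (T/C).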

[1] = dose: 50.0 mg/kg/injection, schedule: Q01DX009 (ip), vehicle: saline with Tween-80
[2] = dose: 100.0 mg/kg/injection, schedule: Q01DX009 (ip), vehicle: saline with Tween-80
[3] = dose: 100.0 mg/kg/injection, schedule: Q01DX009 (ip), vehicle: water
[4] = dose: 25.0 mg/kg/injection, schedule: Q01DX009 (ip), vehicle: Klucel (hydroxypropylcellulose) (HPC)
[5] = dose: 100.0 mg/kg/injection, schedule: Q04DX003 (ip), vehicle: saline with Tween-80
[6] = dose: 200.0 mg/kg/injection, schedule: Q04DX003 (ip), vehicle: saline with Tween-80
[7] = dose: 400.0 mg/kg/injection, schedule: Q04DX003 (ip), vehicle: saline with Tween-80

Question: What does the source list for `COc1cc([C@@H]2c3cc4c(cc3[C@H](O)[C@H]3COC(=O)[C@H]23)OCO4)cc(OC)c1OC`?
Answer: T/C (dose: 1.0 mg/kg/injection, schedule: Q01DX010 (ip), vehicle: steriod suspending solution): 118 % of control; T/C (dose: 2.0 mg/kg/injection, schedule: Q01DX010 (ip), vehicle: carboxymethylcellulose (CMC)): 171 % of control; T/C (dose: 2.25 mg/kg/injection, schedule: Q01DX001 (ip), vehicle: other): 115 % of control; T/C (dose: 2.25 mg/kg/injection, schedule: Q01DX010 (ip), vehicle: other): 150 % of control; T/C (dose: 4.0 mg/kg/injection, schedule: Q01DX010 (ip), vehicle: carboxymethylcellulose (CMC)): 95 % of control; T/C (dose: 4.5 mg/kg/injection, schedule: Q01DX010 (ip), vehicle: other): 154 % of control; T/C (dose: 9.0 mg/kg/injection, schedule: Q01DX001 (ip), vehicle: other): 115 % of control; T/C (dose: 9.0 mg/kg/injection, schedule: Q01DX010 (ip), vehicle: other): 95 % of control

Question: What does the source list for `c1ccc2nc(-c3cc4ccccc4s3)ccc2c1`?
Answer: T/C (dose: 100.0 mg/kg/injection, schedule: Q04DX003 (ip), vehicle: saline sonified): 104 % of control; T/C (dose: 200.0 mg/kg/injection, schedule: Q04DX003 (ip), vehicle: saline sonified): 95 % of control; T/C (dose: 400.0 mg/kg/injection, schedule: Q04DX003 (ip), vehicle: saline sonified): 118 % of control

Question: For `O=C(Nc1cccc(Cl)c1)C1CCCC1=Nc1cccc(Cl)c1` (stereo unspecified), which T/C [1] is on record?
Answer: 100 % of control

Question: What about the T/C [2] of the same compound?
Answer: 106 % of control

Question: How did the T/C (dose: 25.0 mg/kg/injection, schedule: Q01DX009 (ip), vehicle: water) turn out when `CSCC(C(N)=O)c1cc(Cl)ccc1Cl` (stereo unspecified) was run?
Answer: 97 % of control

Question: What about the T/C (dose: 50.0 mg/kg/injection, schedule: Q01DX009 (ip), vehicle: water) of the same compound?
Answer: 103 % of control

Question: What about the T/C [2] of the same compound?
Answer: 100 % of control

Question: And the T/C [3]?
Answer: 101 % of control

Question: And the T/C (dose: 100.0 mg/kg/injection, schedule: Q04DX003 (ip), vehicle: water)?
Answer: 95 % of control

Question: What about the T/C (dose: 200.0 mg/kg/injection, schedule: Q04DX003 (ip), vehicle: water) of the same compound?
Answer: 100 % of control

Question: What about the T/C (dose: 400.0 mg/kg/injection, schedule: Q04DX003 (ip), vehicle: water) of the same compound?
Answer: 100 % of control

Question: Which T/C (dose: 9.0 mg/kg/injection, schedule: Q01DX009 (ip), vehicle: Klucel (hydroxypropylcellulose) (HPC)) does the source give for `O=C(NC(CO)Cc1ccccc1)c1ccccc1` (stereo unspecified) here?
Answer: 102 % of control

Question: And the T/C (dose: 18.0 mg/kg/injection, schedule: Q01DX009 (ip), vehicle: Klucel (hydroxypropylcellulose) (HPC))?
Answer: 95 % of control

Question: What about the T/C (dose: 36.0 mg/kg/injection, schedule: Q01DX009 (ip), vehicle: Klucel (hydroxypropylcellulose) (HPC)) of the same compound?
Answer: 99 % of control

Question: What about the T/C (dose: 72.0 mg/kg/injection, schedule: Q01DX009 (ip), vehicle: Klucel (hydroxypropylcellulose) (HPC)) of the same compound?
Answer: 99 % of control

Question: How did the T/C [4] turn out when `S=C(NNc1ccccc1)Nc1ccccc1` was run?
Answer: 106 % of control

Question: And the T/C (dose: 50.0 mg/kg/injection, schedule: Q01DX009 (ip), vehicle: Klucel (hydroxypropylcellulose) (HPC))?
Answer: 101 % of control

Question: And the T/C (dose: 100.0 mg/kg/injection, schedule: Q01DX009 (ip), vehicle: Klucel (hydroxypropylcellulose) (HPC))?
Answer: 96 % of control

Question: With `CCCC(CC)C(C(=O)OCC)C1=NC(C)(C)CC(C)O1` (stereo unspecified) as the compound, how does the T/C (dose: 12.5 mg/kg/injection, schedule: Q01DX001 (ip), vehicle: saline sonified) read?
Answer: 100 % of control

Question: And the T/C (dose: 25.0 mg/kg/injection, schedule: Q01DX001 (ip), vehicle: saline sonified)?
Answer: 100 % of control

Question: And the T/C (dose: 50.0 mg/kg/injection, schedule: Q01DX001 (ip), vehicle: saline sonified)?
Answer: 100 % of control

Question: `O=S(=O)(c1ccccc1)N1C2=CCCC3CCCCC23c2ccccc21` (stereo unspecified) was tested. Which T/C (dose: 100.0 mg/kg/injection, schedule: Q04DX002 (ip), vehicle: saline with Tween-80) did it give?
Answer: 95 % of control

Question: What about the T/C (dose: 200.0 mg/kg/injection, schedule: Q04DX002 (ip), vehicle: saline with Tween-80) of the same compound?
Answer: 92 % of control

Question: What about the T/C (dose: 400.0 mg/kg/injection, schedule: Q04DX002 (ip), vehicle: saline with Tween-80) of the same compound?
Answer: 92 % of control

Question: `COC(=O)CCSC(c1ccccc1)(c1ccccc1)c1ccccc1` was tested. Which T/C (dose: 87.0 mg/kg/injection, schedule: Q01DX009 (ip), vehicle: Klucel (hydroxypropylcellulose) (HPC)) did it give?
Answer: 96 % of control

Question: With `CCCCNP(=O)(N1CC1C)N1CC1C` (stereo unspecified) as the compound, how does the T/C (dose: 33.0 mg/kg/injection, schedule: Q04DX003 (ip), vehicle: saline) read?
Answer: 122 % of control

Question: What about the T/C (dose: 50.0 mg/kg/injection, schedule: Q04DX003 (ip), vehicle: saline) of the same compound?
Answer: 175 % of control and 181 % of control

Question: And the T/C (dose: 100.0 mg/kg/injection, schedule: Q04DX003 (ip), vehicle: saline)?
Answer: 90 % of control

Question: Which results are given for `COc1cc2c(cc1OC)C1CCc3cc4c(cc3C1N=C2)OCO4` (stereo unspecified)?
Answer: T/C (dose: 20.0 mg/kg/injection, schedule: Q01DX009 (ip), vehicle: saline): 100 % of control; T/C (dose: 40.0 mg/kg/injection, schedule: Q01DX009 (ip), vehicle: saline): 105 % of control; T/C (dose: 80.0 mg/kg/injection, schedule: Q01DX009 (ip), vehicle: saline): 105 % of control; T/C (dose: 120.0 mg/kg/injection, schedule: Q01DX009 (ip), vehicle: saline): 105 % of control; T/C (dose: 240.0 mg/kg/injection, schedule: Q01DX009 (ip), vehicle: saline): 100 % of control

Question: Which T/C [3] does the source give for `C=C(C(N)=O)c1cc(Cl)ccc1Cl` here?
Answer: 110 % of control

Question: What about the T/C [5] of the same compound?
Answer: 100 % of control

Question: What about the T/C (dose: 200.0 mg/kg/injection, schedule: Q01DX009 (ip), vehicle: water) of the same compound?
Answer: 100 % of control

Question: And the T/C [6]?
Answer: 95 % of control

Question: What about the T/C (dose: 400.0 mg/kg/injection, schedule: Q01DX009 (ip), vehicle: water) of the same compound?
Answer: 100 % of control

Question: And the T/C [7]?
Answer: 95 % of control

Question: What does the source list for `CN=C1N[N+]2=C(C)CSCC2(C)S1` (stereo unspecified)?
Answer: T/C (dose: 50.0 mg/kg/injection, schedule: Q01DX009 (ip), vehicle: saline): 100 % of control; T/C (dose: 100.0 mg/kg/injection, schedule: Q01DX009 (ip), vehicle: saline): 100 % of control; T/C (dose: 200.0 mg/kg/injection, schedule: Q01DX009 (ip), vehicle: saline): 97 % of control

Question: With `CN(C)C=Nc1ccc2c3c(cccc13)CC2` as the compound, how does the T/C (dose: 6.25 mg/kg/injection, schedule: Q01DX009 (ip), vehicle: Klucel (hydroxypropylcellulose) (HPC)) read?
Answer: 103 % of control

Question: And the T/C (dose: 12.5 mg/kg/injection, schedule: Q01DX009 (ip), vehicle: Klucel (hydroxypropylcellulose) (HPC))?
Answer: 99 % of control

Question: What about the T/C (dose: 16.6 mg/kg/injection, schedule: Q01DX009 (ip), vehicle: Klucel (hydroxypropylcellulose) (HPC)) of the same compound?
Answer: 115 % of control

Question: And the T/C [4]?
Answer: 114 % of control

Question: For `c1csc(-c2nc3ccccc3s2)c1`, which T/C [5] is on record?
Answer: 109 % of control

Question: And the T/C [6]?
Answer: 100 % of control

Question: And the T/C [7]?
Answer: 100 % of control

Question: How did the T/C (dose: 1.0 mg/kg/injection, schedule: Q01DX010 (ip), vehicle: carboxymethylcellulose (CMC)) turn out when `COc1cc([C@@H]2c3cc4c(cc3C(Br)[C@H]3COC(=O)[C@H]23)OCO4)cc(OC)c1OC` (stereo partly specified) was run?
Answer: 104 % of control

Question: And the T/C (dose: 2.1 mg/kg/injection, schedule: Q01DX010 (ip), vehicle: carboxymethylcellulose (CMC))?
Answer: 104 % of control

Question: What about the T/C (dose: 4.2 mg/kg/injection, schedule: Q01DX010 (ip), vehicle: carboxymethylcellulose (CMC)) of the same compound?
Answer: 104 % of control

Question: What about the T/C (dose: 7.5 mg/kg/injection, schedule: Q01DX009 (ip), vehicle: Klucel (hydroxypropylcellulose) (HPC)) of the same compound?
Answer: 161 % of control

Question: What about the T/C (dose: 15.0 mg/kg/injection, schedule: Q01DX009 (ip), vehicle: Klucel (hydroxypropylcellulose) (HPC)) of the same compound?
Answer: 190 % of control

Question: What about the T/C (dose: 30.0 mg/kg/injection, schedule: Q01DX009 (ip), vehicle: Klucel (hydroxypropylcellulose) (HPC)) of the same compound?
Answer: 95 % of control

Question: With `CC1(CNC(=O)C(=O)NCC2(C)CO2)CO1` (stereo unspecified) as the compound, how does the T/C (dose: 50.0 mg/kg/injection, schedule: Q04DX003 (ip), vehicle: saline with Tween-80) read?
Answer: 158 % of control

Question: What about the T/C [2] of the same compound?
Answer: 154 % of control

Question: And the T/C [5]?
Answer: 191 % of control

Question: And the T/C (dose: 132.0 mg/kg/injection, schedule: Q04DX003 (ip), vehicle: saline with Tween-80)?
Answer: 208 % of control

Question: And the T/C [6]?
Answer: 183 % of control

Question: What about the T/C (dose: 300.0 mg/kg/injection, schedule: Q04DX003 (ip), vehicle: saline with Tween-80) of the same compound?
Answer: 233 % of control

Question: What does the source list for `O=[N+]([O-])c1ccc(-c2nc(Cl)c3c(n2)CCCC3)o1`?
Answer: T/C [1]: 95 % of control; T/C [2]: 98 % of control; T/C (dose: 200.0 mg/kg/injection, schedule: Q01DX009 (ip), vehicle: saline with Tween-80): 97 % of control

Question: Which T/C (dose: 50.0 mg/kg/injection, schedule: Q04DX003 (ip), vehicle: Klucel (hydroxypropylcellulose) (HPC)) does the source give for `CCCN(CCC)c1ccc(C=O)cc1` here?
Answer: 100 % of control

Question: And the T/C (dose: 100.0 mg/kg/injection, schedule: Q04DX003 (ip), vehicle: Klucel (hydroxypropylcellulose) (HPC))?
Answer: 105 % of control

Question: And the T/C (dose: 200.0 mg/kg/injection, schedule: Q04DX003 (ip), vehicle: Klucel (hydroxypropylcellulose) (HPC))?
Answer: 94 % of control
